The values that follow come from PMC9822352, “Design, Synthesis and Evaluation of New Multifunctional Benzothiazoles as Photoprotective, Antioxidant and Antiproliferative Agents” (Molecules, 2022).

Data set [1] in a line: UV spectra in solution (MeOH-DMSO): λmax and molar extinction coefficient. The following applies: for ε (molar extinction coefficient): at λmax, Lambert-Beer equation, in M-1 cm-1 (unit assumed); for λmax: solution in MeOH-DMSO, 290–400 nm. Type of data set: physicochemical. The protocol: We next investigated the protective potential against UV radiation of each compound. Specifically, in vitro tests were conducted to determine the parameters related to absorption in the UV spectrum and those fundamental to the relative evaluation of the filtering potential and thus candidature as possible UV sunscreen ingredients of the candidates under examination, including λ critical and SPF (sun protection factor). Since the SPF is correlated to the UV quantitative absorption of the substances, the wavelength of maximum absorption (λmax) and the molar extinction coefficient (ε) of the derivatives in solution (MeOH-DMSO) were evaluated (Figures S1 and S2, Supplementary Materials). The UV spectra of the compounds BZTidr1–6 and BZTcin1–5 were recorded in the UVA-UVB range (290–400 nm) to evaluate their profile and compare it to that of the PBSA, a commercial UVB filter that has a λmax of 302 nm. After this peak, the absorbance of PBSA drops, reaching almost zero in the 325 nm range, and thus not providing absorption in the UVA region.
Once the λmax of each derivative was established, the molar extinction coefficient ε was calculated by applying the Lambert-Beer equation (Table S1, Supplementary Materials): the higher this value, the greater the ability of the compound under examination to absorb UV radiation. […] The excellent values of BZTidr1, BZTidr2 and BZTidr3 are ascribed to the aforementioned hyperchromic shift. In regard to the BZTcin1–5 series, the molar extinction coefficients calculated were very high, and the best values were those of BZTcin1, BZTcin2 and BZTcin3, also attributable to the hyperchromic shift of the absorption spectra. For both series, the excellent absorption capacity of ultraviolet radiation can be traced back to the high π-type conjugation that characterizes them.

A short description of data set [2]: FRAP (Ferric Reducing Antioxidant Power) assay. The following applies: Trolox standard, 37 °C 10 min, 593 nm; mean ± SEM. The source says:
The FRAP (Ferric Reducing Antioxidant Power) test allows the measurement of the ability of antioxidants to reduce ferric ion to ferrous. This method represents one of the simplest, quickest and least expensive methods for the determination of reducing properties on oxidized species in vitro.
The FRAP test (Ferric Reducing Antioxidant Power) is based on a colorimetric reaction and evaluates the ability of a sample of reducing ferric ions to ferrous ion while complexed with TPTZ (2,4,6-trispyridil-s-triazine). The FRAP solution was prepared from 0.1 M acetate buffer (pH 3.6), 10 mmol/L of TPTZ in 40 mM HCl, and 20 mM solution of FeCl3, with a 10:1:1 ratio, as described. Then, 1.9 mL of this solution was incubated with 0.1 mL of the sample solution at 37 °C for 10 min. The absorbance was read with a UV-Vis spectrophotometer at a 593 nm wavelength, relative to the maximum peak of absorbance of Fe^2+-TPTZ complex. Trolox® was used as a standard and the results are expressed as µmolTE/g.

Data set [3] is described as follows: In vitro filtering parameters of O/W sunscreen formulation containing 3% compound (modified Diffey-Robson, PMMA plates). The following applies: 3% in formulation, before irradiation. The source says:
All synthesized compounds were formulated at 3% and their photoprotective efficacy, determined by spectrophotometric measurements using the modified Diffey-Robson method, was compared with that of the lead compound PBSA (used at 3% in the same formulation) and using the base without active as a control (Table 2).
The synthesized compounds were incorporated at a concentration of 3% in a typical oil-in-water sunscreen formulation, to evaluate the filtering parameters, and have the following ingredient composition:
INCI (International Nomenclature Cosmetic Ingredients): aqua, glycerin, Euxyl PE 9010, xanthan gum, Tribehenin PEG-20 Esters, cetearyl alcohol, dicaprylyl carbonate, PPG-26-Buteth-26 (and) PEG-40 Hydrogenated Castor Oil (and) water, C12-C15 Alkyl Benzoate, and Sodium hydroxide (sol. 10%).
As previously reported the protocol indicates to spread 32.5 mg of each formulation on 25 cm^2 PMMA plates with the fingers. Each formulation was tested in triplicate, and five measurements were recorded for each dish, following a 15–30 min incubation in the dark at room temperature. UV transmittance data was recorded using a UV-VIS spectrophotometer in the range 290–400 nm. The blank plate, SPF, UVA-PF and critical wavelength were obtained by SPF Calculator software (version 2.1), Shimadzu, Milan, Italy).

Data set [4] is described as follows: DPPH radical scavenging test. The following applies: mean ± SEM; for DPPH (% Inhibition): compound at 1 mg/mL, 30 min, 517 nm. As for the experimental part: The DPPH assay is widely used, and the simplest and fastest in vitro method for evaluating the antioxidant power of extracts or isolated compounds; it is based on the depletion of the 2,2-diphenyl-1-picrylhydrazyl radical (DPPH˙) by an antioxidant molecule with scavenger activity. This is an extremely sensitive test that can detect the activity of active ingredients present in very low concentrations.
The procedure used was adapted from Wang et al.. Briefly, 0.750 mL of a methanolic solution of each tested compound was treated with 1.5 mL of DPPH solution (0.004%) in MeOH. Samples were stored in the dark at room temperature for 30 min, and the absorbance value was read with a spectrophotometer at 517 nm, which is the maximum peak of absorbance relative to the DPPH radical absorption spectra. The values obtained were fitted into Equation (1) and converted to inhibition percentage (%) of the radical:DPPH inhibition percentage (%) = 100 × [1 − A1/A0](1) where A1 and A0 were, respectively, the absorbance recorded with and without the sample, which are directly proportional to DPPH residual concentration in the sample and DPPH concentration in the control (0.750 of MeOH and 1.5 mL of DPPH solution). […] A linear regression was performed to calculate the sample concentration able to eliminate 50% of DPPH free radicals.

Data set [5] can be described thus: Photostability study of 3% formulation (post-irradiation filtering parameters). Particulars: 3% in formulation, post irradiation. The source says: To outline the efficacy and safety profile of a sunscreen formulation, it is essential to provide data relating to photostability. It is possible to provide photodegradation data by recording, pre- and post-irradiation, the transmittance of PMMA plates with finger-coat formulations subjected to a dose of UVA capable of causing erythema, according to the criteria of Garoli et al.. By means of Equations (2) and (3) it was possible to evaluate the residual percentage of SPF in vitro and of UVA-PF for all the prepared formulations. Of greatest interest are the values obtained for the derivatives BZTcin2 and BZTcin4.
To determine the photostability, the previously reported method was adopted, which consists in preparing each plate as mentioned above and subjecting it to solar irradiation quantified as the minimum dose of UVA equivalent to an effective radiant exposure of erythema. The protocol stipulates that, before and after exposure to sunlight, the transmission of the sun protection layer in the range of 290–400 nm is recorded.
Using Equations (2) and (3) below, the residual percentage of SPF in vitro (% SPFeff.) and UVA-PF (% UVA-PFeff.) have been obtained, which, if greater than or equal to 80, can classify a filter as photostable. %SPFeff. = in vitro SPFafter/in vitro SPFbefore × 100(2) %UVA − PFeff. = UVA − PFafter/UVA − PFbefore × 100(3)

Another data set has as its system HaCat keratinocytes. The experiment in a line: Cell growth inhibition assay, HaCat. Type of data set: cell-based, human. The following applies: 24 h incubation, cell count. The protocol: All synthesized compounds were tested in order to evaluate their in vitro antiproliferative activity. The human melanoma Colo-38 cell line was selected as a tumor skin model, while the immortalized human HaCaT keratinocytes were chosen as a control for the evaluation of the cytotoxicity towards non-cancerous cells and of the selectivity towards tumor cell lines. […] The selectivity index (SI) was also calculated and is the ratio between the IC50 of a given compound towards the non-cancerous cell line and the IC50 of the same compound towards the tumor cell line.
Cell growth inhibition assays were carried out using human melanoma Colo-38 cells and skin HaCat keratinocytes cells. Human melanoma Colo-38 cells were kindly provided by Dr. Patrizio Giacomini (Laboratory of Immunology, Regina Elena Institute, Rome, Italy). HaCat cells were kindly provided by Istituto Zooprofilattico Sperimentale della Lombardia e dell’Emilia Romagna, Brescia, Italy. Cell lines were seeded using concentrations of 40,000 cells/mL and 25,000 cells/mL, respectively. Colo-38 cells were maintained in RPMI 1640, supplemented with 10% fetal bovine serum (FBS), penicillin (100 Units mL^−1), and streptomycin (100 µg mL^−1). HaCat cells were maintained in DMEM, supplemented with 10% fetal bovine serum (FBS), penicillin (100 Units mL^−1), streptomycin (100 µg mL^−1) and glutamine (2 mM); the incubation was performed at 37 °C in a 5% CO2 atmosphere. Tested compounds were dissolved in MeOH/DMSO (1:1) to obtain 50 mM stock solutions and diluted before cell treatment in MeOH 100%. The tested compounds were added at serial dilutions to the cell cultures (from 0.1 to 100 µM) and incubated for 24 h further. Cells were then harvested, suspended in physiological solution, and counted with a Z2 Coulter Counter (Coulter Electronics, Hialeah, FL, USA). The cell number/mL and the IC50 values were determined when untreated cells were in the log phase of cell growth. Cells treated with vehicles and untreated cells were placed in each plate.

Several values for one entry are separate records, joined by “and”; a condition that tells them apart may be missing. Identical values can stand only once.

Consider `O=C(C=Cc1ccccc1)Nc1nc2ccccc2s1` [BZTcin1, N-(benzo[d]thiazol-2-yl)cinnamamide], for which, in data set [1], the “ε (molar extinction coefficient)” value is listed as 33033.71 and the λmax is listed as 317.0 nm. In addition, in data set [2], the FRAP is reported as 98.69 ± 2.06 µmolTE/g. In data set [3], this compound yielded an SPF of 1.74, a UVA/UVB of 0.93, a UVAPF0 of 1.38 and a λc of 370 nm. In addition, in data set [4], the “DPPH (% Inhibition)” value is on record as 0.51 ± 0.27%. Besides, in data set [5], the SPF is given as 2.33, the UVA/UVB amounted to 0.93, the UVAPF is recorded as 1.48 and the λc amounted to 364 nm.
The compound `COc1ccc(/C=C/C(=O)Nc2nc3ccccc3s2)cc1` [BZTcin3, (E)-N-(benzo[d]thiazol-2-yl)-3-(4-methoxyphenyl)acrylamide] came in with a melting point of 260 to 262 °C. Further, in data set [1], the “ε (molar extinction coefficient)” value amounted to 36271.07 and the λmax was 334.5 nm. The compound also displayed an FRAP in data set [2] of 42.12 ± 1.35 µmolTE/g. In data set [3], this compound yielded an SPF of 1.32, a UVA/UVB of 1.07, a UVAPF0 of 1.38 and a λc of 384 nm. Moreover, the “DPPH (% Inhibition)” value in data set [4] amounted to 5.77 ± 0.00%. In addition, in data set [5], the SPF worked out at 1.32, the UVA/UVB was 1.07, the UVAPF is 1.36 and the λc is 384 nm.
In the case of `COc1ccc(/C=N/NC(=O)c2nc3ccccc3s2)cc1O` [BZTidr5, (E)-N′-(3-hydroxy-4-methoxybenzylidene)benzo[d]thiazole-2-carbohydrazide], in data set [1], the “ε (molar extinction coefficient)” value was 23462.08 and the λmax is recorded as 342.4 nm. The compound also displayed an FRAP in data set [2] of 1758.16 ± 60.41 µmolTE/g. Besides, in data set [3], the SPF came out at 1.60, the UVA/UVB stood at 1.06, the UVAPF0 came out at 1.58 and the λc is 387 nm. In data set [4], the “DPPH (% Inhibition)” value amounted to 44.00 ± 3.56%. In data set [5], this compound yielded an SPF of 1.60, a UVA/UVB of 1.06, a UVAPF of 1.56 and a λc of 387 nm.
Regarding `COc1cc(/C=N/NC(=O)c2nc3ccccc3s2)ccc1O` [BZTidr6, (E)-N′-(3-methoxy-4-hydroxybenzylidene)benzo[d]thiazole-2-carbohydrazide], in data set [1], the “ε (molar extinction coefficient)” value worked out at 22071.63 and the λmax is recorded as 344.8 nm. This compound also gave an FRAP in data set [2] of 3826.51 ± 90.60 µmolTE/g. Further, in data set [3], the SPF came out at 1.24, the UVA/UVB is given as 1.06, the UVAPF0 worked out at 1.36 and the λc is given as 389 nm. In data set [4], the “DPPH (% Inhibition)” value is >90.00% and the “DPPH IC50” value was determined as 26.22 ± 1.81 µg/mL. In data set [5], this compound had an SPF of 1.24, a UVA/UVB of 1.06, a UVAPF of 1.36 and a λc of 389 nm.
For the compound `O=C(O)/C=C/c1ccc(O)c(O)c1` [Caffeic acid, reference compound], the FRAP in data set [2] was 10,160.24 ± 21.48 µmolTE/g. Moreover, in data set [4], the “DPPH (% Inhibition)” value was 79.95 ± 0.88% and the “DPPH IC50” value is 5.26 ± 0.41 µg/mL.
In turn, `N.N.[Cl][Pt][Cl]` [Cisplatin, reference compound] came in with an IC50 in the data set with HaCat keratinocytes of 2000 ± 400 nM.
`O=S(=O)(O)c1ccc2nc(-c3ccccc3)[nH]c2c1` [PBSA, 2-phenyl-1-H-benzimidazole-5-sulfonic acid, reference compound]: in data set [1], the “ε (molar extinction coefficient)” value amounted to 23881.86; the λmax is 302.0 nm and 302 nm. For the same compound, the FRAP result in data set [2] was “<LOQ *”. Further, in data set [3], the SPF worked out at 1.91, the UVA/UVB was found to be 0.67, the UVAPF0 was found to be 1.13 and the λc was 357 nm. Also, the “DPPH (% Inhibition)” value in data set [4] was “<LOQ *”. Further, in data set [5], the SPF is listed as 1.98, the UVA/UVB was determined as 0.67, the UVAPF is recorded as 1.13 and the λc is 355 nm.
